Data reported in ChEMBL document CHEMBL4400533, “Histone deacetylase 3 inhibitors in learning and memory processes with special emphasis on benzamides” (Eur J Med Chem, 2019).

Experiments:
[1] = biological target: T1, Histone deacetylase 1 (Homo sapiens, UniProt Q13547); assay: Inhibition of HDAC1 (unknown origin) using (FAM)-labeled acetylated peptide as substrate measured after 17 hrs by fluorescence assay
[2] = biological target: T2, Histone deacetylase 2 (Homo sapiens, UniProt Q92769); assay: Inhibition of HDAC2 (unknown origin) using (FAM)-labeled acetylated peptide as substrate measured after 17 hrs by fluorescence assay
T2 sequence (Q92769 whole entry): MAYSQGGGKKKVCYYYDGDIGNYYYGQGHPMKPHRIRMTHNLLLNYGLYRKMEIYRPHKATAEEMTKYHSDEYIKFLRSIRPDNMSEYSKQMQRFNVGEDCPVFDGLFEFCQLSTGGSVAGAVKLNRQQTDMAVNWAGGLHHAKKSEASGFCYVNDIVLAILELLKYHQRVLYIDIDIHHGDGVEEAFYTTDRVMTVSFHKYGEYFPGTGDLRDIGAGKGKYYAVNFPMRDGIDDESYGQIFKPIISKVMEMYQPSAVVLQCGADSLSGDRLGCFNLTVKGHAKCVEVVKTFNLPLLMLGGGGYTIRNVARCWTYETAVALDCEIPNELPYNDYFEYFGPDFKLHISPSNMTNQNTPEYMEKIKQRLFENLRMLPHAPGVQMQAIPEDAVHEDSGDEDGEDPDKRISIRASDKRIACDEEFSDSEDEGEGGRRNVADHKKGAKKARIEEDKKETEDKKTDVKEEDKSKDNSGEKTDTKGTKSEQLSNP

[3] = biological target: Histone deacetylase 3 (Homo sapiens, UniProt O15379); assay: Inhibition of HDAC3 (unknown origin) using (FAM)-labeled acetylated peptide as substrate measured after 17 hrs by fluorescence assay
Chain of Histone deacetylase 3 (O15379 whole entry): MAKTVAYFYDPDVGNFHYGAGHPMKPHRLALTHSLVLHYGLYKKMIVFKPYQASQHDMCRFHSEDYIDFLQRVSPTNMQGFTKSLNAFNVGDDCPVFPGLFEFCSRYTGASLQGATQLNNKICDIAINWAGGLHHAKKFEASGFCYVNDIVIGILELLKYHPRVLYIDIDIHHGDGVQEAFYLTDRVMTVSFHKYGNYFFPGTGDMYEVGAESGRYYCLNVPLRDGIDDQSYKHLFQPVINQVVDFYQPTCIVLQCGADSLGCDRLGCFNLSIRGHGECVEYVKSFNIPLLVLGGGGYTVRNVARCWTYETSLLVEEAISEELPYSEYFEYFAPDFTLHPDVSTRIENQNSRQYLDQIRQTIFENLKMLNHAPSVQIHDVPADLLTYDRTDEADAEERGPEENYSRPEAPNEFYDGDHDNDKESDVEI

[4] = biological target: T3, Protein deacetylase HDAC6 (Homo sapiens, UniProt Q9UBN7); assay: Inhibition of HDAC6 (unknown origin) using (FAM)-labeled acetylated peptide as substrate measured after 17 hrs by fluorescence assay
T3 sequence (Q9UBN7 whole entry): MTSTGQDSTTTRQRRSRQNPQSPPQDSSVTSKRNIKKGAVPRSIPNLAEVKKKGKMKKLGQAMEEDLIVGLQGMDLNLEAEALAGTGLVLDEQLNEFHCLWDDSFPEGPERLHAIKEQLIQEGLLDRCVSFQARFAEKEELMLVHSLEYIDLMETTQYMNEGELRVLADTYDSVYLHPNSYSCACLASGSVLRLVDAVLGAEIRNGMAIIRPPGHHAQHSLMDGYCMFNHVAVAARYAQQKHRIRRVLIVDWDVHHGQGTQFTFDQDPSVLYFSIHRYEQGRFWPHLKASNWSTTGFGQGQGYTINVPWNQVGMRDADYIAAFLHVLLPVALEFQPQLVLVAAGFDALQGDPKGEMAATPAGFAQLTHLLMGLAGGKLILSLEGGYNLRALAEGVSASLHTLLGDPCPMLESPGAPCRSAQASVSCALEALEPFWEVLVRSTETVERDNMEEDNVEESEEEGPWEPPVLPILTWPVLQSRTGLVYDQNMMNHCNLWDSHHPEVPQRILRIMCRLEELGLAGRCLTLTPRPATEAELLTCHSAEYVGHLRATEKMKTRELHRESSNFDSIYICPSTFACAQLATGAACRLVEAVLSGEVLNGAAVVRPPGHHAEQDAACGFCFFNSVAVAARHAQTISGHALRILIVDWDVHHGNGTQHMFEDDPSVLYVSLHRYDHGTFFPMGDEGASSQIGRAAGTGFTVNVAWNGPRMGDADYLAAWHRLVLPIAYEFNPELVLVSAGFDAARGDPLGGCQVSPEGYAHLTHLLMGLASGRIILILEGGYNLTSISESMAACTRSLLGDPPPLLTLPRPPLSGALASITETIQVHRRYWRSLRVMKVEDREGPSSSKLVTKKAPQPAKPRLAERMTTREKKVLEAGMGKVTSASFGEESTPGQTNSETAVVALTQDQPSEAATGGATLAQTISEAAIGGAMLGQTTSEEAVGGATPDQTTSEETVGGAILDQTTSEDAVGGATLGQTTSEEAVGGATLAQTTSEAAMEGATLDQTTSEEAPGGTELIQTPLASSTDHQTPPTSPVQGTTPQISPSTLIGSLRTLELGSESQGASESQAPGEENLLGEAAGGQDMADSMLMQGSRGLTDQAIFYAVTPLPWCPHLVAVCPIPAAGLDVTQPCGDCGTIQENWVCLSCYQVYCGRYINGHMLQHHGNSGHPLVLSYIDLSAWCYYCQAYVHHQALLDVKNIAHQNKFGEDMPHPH

[5] = biological target: T4, Histone deacetylase 8 (Homo sapiens, UniProt Q9BY41); assay: Inhibition of HDAC8 (unknown origin) using (FAM)-labeled acetylated peptide as substrate measured after 17 hrs by fluorescence assay
T4 sequence (Q9BY41 whole entry): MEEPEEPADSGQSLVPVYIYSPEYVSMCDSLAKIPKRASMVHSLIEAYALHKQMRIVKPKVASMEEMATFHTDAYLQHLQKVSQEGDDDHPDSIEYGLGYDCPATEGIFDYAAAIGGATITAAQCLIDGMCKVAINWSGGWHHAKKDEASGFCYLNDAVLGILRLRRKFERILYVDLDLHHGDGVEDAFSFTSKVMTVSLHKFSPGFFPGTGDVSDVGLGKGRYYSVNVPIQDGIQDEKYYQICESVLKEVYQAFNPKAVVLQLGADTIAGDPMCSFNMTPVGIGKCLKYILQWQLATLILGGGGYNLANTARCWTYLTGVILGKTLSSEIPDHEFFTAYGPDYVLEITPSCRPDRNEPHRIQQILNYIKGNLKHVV

[6] = biological target: T5, Polyamine deacetylase HDAC10 (Homo sapiens, UniProt Q969S8); assay: Inhibition of HDAC10 (unknown origin) using (FAM)-labeled acetylated peptide as substrate measured after 17 hrs by fluorescence assay
T5 sequence (Q969S8 whole entry): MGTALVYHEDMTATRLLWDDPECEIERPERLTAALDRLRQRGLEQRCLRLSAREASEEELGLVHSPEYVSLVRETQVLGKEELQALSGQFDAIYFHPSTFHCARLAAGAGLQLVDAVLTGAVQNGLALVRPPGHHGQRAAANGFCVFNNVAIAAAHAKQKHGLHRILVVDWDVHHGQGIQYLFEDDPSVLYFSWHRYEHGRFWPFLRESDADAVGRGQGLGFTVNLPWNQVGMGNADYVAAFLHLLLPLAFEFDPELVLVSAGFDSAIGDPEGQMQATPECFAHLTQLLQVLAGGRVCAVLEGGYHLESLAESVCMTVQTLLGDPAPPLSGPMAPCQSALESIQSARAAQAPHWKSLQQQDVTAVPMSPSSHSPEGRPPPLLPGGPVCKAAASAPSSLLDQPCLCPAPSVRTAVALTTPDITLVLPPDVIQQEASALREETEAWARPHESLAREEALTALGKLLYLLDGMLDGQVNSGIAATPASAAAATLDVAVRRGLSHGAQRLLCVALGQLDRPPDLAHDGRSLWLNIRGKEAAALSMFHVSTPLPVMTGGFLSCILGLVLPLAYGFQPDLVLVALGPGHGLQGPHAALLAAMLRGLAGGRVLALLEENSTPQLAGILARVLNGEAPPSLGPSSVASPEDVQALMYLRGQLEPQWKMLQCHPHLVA

[7] = biological target: T6, Histone deacetylase 4 (Homo sapiens, UniProt P56524); assay: Inhibition of HDAC4 (unknown origin)
T6 sequence (P56524 whole entry): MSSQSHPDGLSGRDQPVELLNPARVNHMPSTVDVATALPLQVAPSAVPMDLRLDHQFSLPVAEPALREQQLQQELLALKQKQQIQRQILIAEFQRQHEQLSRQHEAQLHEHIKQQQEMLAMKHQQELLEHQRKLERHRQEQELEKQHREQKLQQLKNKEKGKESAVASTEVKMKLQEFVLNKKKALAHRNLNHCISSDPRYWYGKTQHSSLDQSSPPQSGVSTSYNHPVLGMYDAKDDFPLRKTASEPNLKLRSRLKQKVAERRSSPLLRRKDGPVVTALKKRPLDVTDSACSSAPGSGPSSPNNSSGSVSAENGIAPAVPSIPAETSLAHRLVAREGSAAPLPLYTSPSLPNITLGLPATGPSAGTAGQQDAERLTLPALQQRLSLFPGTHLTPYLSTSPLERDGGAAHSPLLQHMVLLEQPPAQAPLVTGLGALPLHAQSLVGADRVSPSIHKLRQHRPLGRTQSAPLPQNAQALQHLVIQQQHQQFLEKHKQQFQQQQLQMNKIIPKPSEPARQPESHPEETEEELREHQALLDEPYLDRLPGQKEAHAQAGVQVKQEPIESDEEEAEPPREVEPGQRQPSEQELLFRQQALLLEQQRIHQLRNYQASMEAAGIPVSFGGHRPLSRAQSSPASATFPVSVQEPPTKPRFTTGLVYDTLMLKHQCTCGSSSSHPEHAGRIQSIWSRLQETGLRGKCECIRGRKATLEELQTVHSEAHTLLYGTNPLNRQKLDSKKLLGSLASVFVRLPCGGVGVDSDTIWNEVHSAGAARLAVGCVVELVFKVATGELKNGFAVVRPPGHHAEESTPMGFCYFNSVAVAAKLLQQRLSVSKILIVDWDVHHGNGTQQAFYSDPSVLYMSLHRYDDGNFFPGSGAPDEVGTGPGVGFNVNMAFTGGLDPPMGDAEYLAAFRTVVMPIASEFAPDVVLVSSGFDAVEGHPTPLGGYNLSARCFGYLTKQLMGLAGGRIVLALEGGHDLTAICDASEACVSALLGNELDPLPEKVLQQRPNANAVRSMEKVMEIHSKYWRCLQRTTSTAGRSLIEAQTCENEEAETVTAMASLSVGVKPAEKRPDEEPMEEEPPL

[8] = biological target: Histone deacetylase 5 (Homo sapiens, UniProt Q9UQL6); assay: Inhibition of HDAC5 (unknown origin)
Chain of Histone deacetylase 5 (Q9UQL6 whole entry): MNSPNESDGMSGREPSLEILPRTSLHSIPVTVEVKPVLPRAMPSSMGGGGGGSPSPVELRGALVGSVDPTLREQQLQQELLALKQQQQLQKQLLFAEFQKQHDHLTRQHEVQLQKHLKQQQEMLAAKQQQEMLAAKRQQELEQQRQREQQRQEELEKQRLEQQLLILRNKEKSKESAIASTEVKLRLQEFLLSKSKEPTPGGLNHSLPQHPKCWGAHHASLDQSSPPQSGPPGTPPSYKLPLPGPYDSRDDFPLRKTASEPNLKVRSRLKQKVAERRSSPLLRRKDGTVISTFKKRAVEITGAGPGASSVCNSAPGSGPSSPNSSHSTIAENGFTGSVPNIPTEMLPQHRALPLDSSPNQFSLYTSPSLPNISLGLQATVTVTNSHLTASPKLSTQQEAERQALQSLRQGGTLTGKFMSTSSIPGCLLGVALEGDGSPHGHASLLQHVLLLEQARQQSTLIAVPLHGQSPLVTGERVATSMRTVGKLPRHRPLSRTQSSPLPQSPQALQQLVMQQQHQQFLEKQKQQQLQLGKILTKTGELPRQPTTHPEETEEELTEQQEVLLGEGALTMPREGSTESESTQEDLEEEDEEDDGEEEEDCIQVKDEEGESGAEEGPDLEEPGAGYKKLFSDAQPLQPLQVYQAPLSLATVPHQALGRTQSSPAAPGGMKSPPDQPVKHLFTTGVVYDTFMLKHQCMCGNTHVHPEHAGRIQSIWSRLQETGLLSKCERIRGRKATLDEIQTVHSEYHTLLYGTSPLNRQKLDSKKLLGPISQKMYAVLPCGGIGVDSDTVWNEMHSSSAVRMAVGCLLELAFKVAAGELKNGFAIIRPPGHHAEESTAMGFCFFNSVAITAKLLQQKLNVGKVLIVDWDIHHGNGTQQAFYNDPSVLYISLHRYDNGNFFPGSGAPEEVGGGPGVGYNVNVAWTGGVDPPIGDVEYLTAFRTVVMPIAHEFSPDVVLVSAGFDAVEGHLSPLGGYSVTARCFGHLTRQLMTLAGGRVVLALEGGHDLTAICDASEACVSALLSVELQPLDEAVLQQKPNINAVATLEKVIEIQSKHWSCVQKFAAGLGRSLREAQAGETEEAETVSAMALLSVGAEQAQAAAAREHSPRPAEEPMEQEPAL

[9] = biological target: T7, Histone deacetylase 7 (Homo sapiens, UniProt Q8WUI4); assay: Inhibition of HDAC7 (unknown origin)
T7 sequence (Q8WUI4 whole entry): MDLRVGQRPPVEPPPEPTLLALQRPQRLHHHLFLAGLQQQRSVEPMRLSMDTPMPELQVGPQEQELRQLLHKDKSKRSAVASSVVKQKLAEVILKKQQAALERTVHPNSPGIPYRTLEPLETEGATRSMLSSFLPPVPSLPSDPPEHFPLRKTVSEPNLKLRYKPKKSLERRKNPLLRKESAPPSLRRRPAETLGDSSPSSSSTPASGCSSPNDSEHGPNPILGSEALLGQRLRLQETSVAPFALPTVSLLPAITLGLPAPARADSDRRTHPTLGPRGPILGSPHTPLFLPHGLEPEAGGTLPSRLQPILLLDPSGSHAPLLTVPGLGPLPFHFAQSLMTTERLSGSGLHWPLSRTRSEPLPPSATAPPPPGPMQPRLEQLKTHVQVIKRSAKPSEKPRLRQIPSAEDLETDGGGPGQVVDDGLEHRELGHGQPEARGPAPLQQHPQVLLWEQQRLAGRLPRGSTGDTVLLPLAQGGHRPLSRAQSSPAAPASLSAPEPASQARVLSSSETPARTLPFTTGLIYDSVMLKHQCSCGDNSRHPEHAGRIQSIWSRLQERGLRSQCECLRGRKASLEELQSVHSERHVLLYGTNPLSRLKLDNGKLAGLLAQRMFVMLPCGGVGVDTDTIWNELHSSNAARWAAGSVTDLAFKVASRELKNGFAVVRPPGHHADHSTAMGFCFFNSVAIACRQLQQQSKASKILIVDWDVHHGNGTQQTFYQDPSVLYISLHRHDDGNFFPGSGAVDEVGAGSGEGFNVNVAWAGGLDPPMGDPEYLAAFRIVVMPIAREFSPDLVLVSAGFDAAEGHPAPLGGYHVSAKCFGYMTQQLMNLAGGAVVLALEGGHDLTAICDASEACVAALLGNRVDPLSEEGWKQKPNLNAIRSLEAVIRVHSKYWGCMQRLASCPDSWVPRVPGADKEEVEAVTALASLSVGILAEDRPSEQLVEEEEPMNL

[10] = biological target: Histone deacetylase 3/NCoR1 (Homo sapiens, UniProt O15379); assay: Inhibition of human recombinant HDAC3/GST-tagged NCOR1 DAD (397 to 503 residues) expressed in baculovirus expression system by fluorescence assay
[11] = biological target: T3, Protein deacetylase HDAC6; assay: Inhibition of recombinant human full length N-terminal GST-tagged HDAC6 expressed in Sf9 insect cells using (S)-6-acetamido-2-(2-((S)-2-acetamido-4-methylpentanamido)acetamido)-N-(4-methyl-2-oxo-2H-chromen-7-yl)hexanamide as substrate by fluorescence assay
[12] = Dissociation constant, pKa of the compound; type: physicochemical
[13] = biological target: T1, Histone deacetylase 1; assay: Inhibition of recombinant human HDAC1 using fluorescently-labeled acetylated histone peptide as substrate by microfluidic mobility shift assay
[14] = biological target: T2, Histone deacetylase 2; assay: Inhibition of recombinant human HDAC2 using fluorescently-labeled acetylated histone peptide as substrate by microfluidic mobility shift assay
[15] = biological target: T6, Histone deacetylase 4; assay: Inhibition of recombinant human HDAC4 using fluorescently-labeled acetylated histone peptide as substrate by microfluidic mobility shift assay
[16] = biological target: T3, Protein deacetylase HDAC6; assay: Inhibition of recombinant human HDAC6 using fluorescently-labeled acetylated histone peptide as substrate by microfluidic mobility shift assay
[17] = biological target: T7, Histone deacetylase 7; assay: Inhibition of recombinant human HDAC7 using fluorescently-labeled acetylated histone peptide as substrate by microfluidic mobility shift assay
[18] = biological target: T4, Histone deacetylase 8; assay: Inhibition of recombinant human HDAC8 using fluorescently-labeled acetylated histone peptide as substrate by microfluidic mobility shift assay

T1 sequence (Q13547 whole entry): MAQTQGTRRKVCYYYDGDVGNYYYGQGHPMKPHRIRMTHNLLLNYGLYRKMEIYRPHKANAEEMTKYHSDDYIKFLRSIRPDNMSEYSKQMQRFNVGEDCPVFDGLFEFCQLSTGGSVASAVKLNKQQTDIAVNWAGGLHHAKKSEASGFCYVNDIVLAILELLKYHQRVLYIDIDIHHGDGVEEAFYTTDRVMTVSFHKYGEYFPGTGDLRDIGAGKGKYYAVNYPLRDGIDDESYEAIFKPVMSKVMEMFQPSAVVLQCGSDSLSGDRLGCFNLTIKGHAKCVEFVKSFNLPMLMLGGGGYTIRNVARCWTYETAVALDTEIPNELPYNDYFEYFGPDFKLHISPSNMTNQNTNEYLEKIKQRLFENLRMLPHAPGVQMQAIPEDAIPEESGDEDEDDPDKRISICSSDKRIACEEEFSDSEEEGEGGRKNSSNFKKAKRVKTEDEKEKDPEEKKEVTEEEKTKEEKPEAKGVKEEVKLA

Structure (SMILES)	IC50 [1]	IC50 [2]	IC50 [3]	IC50 [4]	IC50 [5]	IC50 [6]	further results
Nc1cccc(-c2csc(NC(=O)CCCCCC(=O)NO)n2)c1	3.8 nM	26.5 nM	2.1 nM	3.3 nM	1950 nM	3.7 nM	
Nc1ccccc1NC(=O)CCCCCC(=O)Nc1ccccc1							IC50 [7]: Not Active; IC50 [8]: Not Active; IC50 [9]: Not Active
Nc1ccccc1NC(=O)c1ccc(-c2cn(CCc3ccsc3)nn2)cc1							IC50 [10]: 240 nM
Nc1ccccc1NC(=O)c1cnccn1							IC50 [11]: > 20000 nM
CC(=O)Nc1ccc(C(=O)Nc2ccc(F)cc2N)cc1							pKa [12]: 2.33
C=C1CN(Cc2ccc(C(=O)Nc3ccccc3N)cc2)C(=O)c2ccccc21							IC50 [13]: 4800 nM; IC50 [14]: 30 nM; IC50 [15]: 5000 nM; IC50 [16]: > 10000 nM; IC50 [17]: 4100 nM; IC50 [18]: > 10000 nM
CCOC(=O)Nc1cccc(-c2csc(NC(=O)CCCCCC(=O)NO)n2)c1	2.5 nM	24.5 nM	1.3 nM	0.79 nM	787 nM	2.1 nM	
CC(C)(C)OC(=O)Nc1cccc(-c2csc(NC(=O)CCCCCC(=O)Nc3ccccc3N)n2)c1	4200 nM	1100 nM	160 nM	1500 nM	> 30000 nM	5300 nM	
CC(=O)Nc1cccc(-c2csc(NC(=O)CCCCCC(=O)Nc3ccccc3N)n2)c1	3200 nM	200 nM	30 nM	11200 nM	> 30000 nM	3000 nM	
CC(C)(C)OC(=O)Nc1cccc(-c2csc(NC(=O)CCCCCC(=O)NO)n2)c1	4.2 nM	21 nM	1.7 nM	< 0.17 nM	2580 nM	5.7 nM	
CCOC(=O)Nc1cccc(-c2csc(NC(=O)CCCCCC(=O)Nc3ccccc3N)n2)c1	24800 nM	880 nM	60 nM	> 30000 nM	> 30000 nM	> 30000 nM	
Nc1cccc(-c2csc(NC(=O)CCCCCC(=O)Nc3ccccc3N)n2)c1	2490 nM	147 nM	60.3 nM	> 30000 nM	> 30000 nM	2910 nM	
CC(=O)Nc1ccc(C(=O)Nc2ccccc2N)cc1 [TACEDINALINE]							pKa [12]: 3.33
